Patent publication US7390790B2, “Ring-substituted diphenylazetidinones, process for their preparation, medicaments comprising these compounds, and their use” (Sanofi-Aventis Deutschland GmbH, priority 2002, dated 2008)

test system: cholesterol absorption; assay: Cholesterol absorption test: uptake of 14C-cholesterol by the liver; assay type: in vivo, mouse; conditions: dose at which the uptake of 14C-cholesterol by the liver was halved (50%), based on a control group; peroral test substance immediately prior to 14C-cholesterol test meal; interpolated from dose-effect curve
From the text: Effect of the compounds of the invention on cholesterol absorption and 3H-taurocholic acid excretion using fecal excrement of mice, rats or hamsters
NMRI mice, Wistar rats, or Golden Syrian hamsters (in groups of n=4-6) were kept in metabolic cages, where they were fed with a standard diet (Altromin, Lage (Lippe)). The afternoon prior to the administration of the radioactive tracers (14C-cholesterol), the feed was removed and the animals were adapted to grates.
Additionally, the animals were labeled s.c. with 3H-TCA (taurocholic acid) (for example 1 μCi/mouse up to 5 μCi/rat) 24 hours prior to the peroral administration of the test meal (14C-cholesterol in Intralipid® 20, Pharmacia-Upjohn).
Cholesterol absorption test: 0.25 ml/mouse Intralipid® 20 (Pharmacia-Upjohn) ((spiked with 0.25 μCi of 14C-cholesterol in 0.1 mg of cholesterol) was administered perorally by gavage.
Test substances were prepared separately in 0.5% methylcellulose (Sigma)/5% Solutol (BASF, Ludwigshafen) or a suitable vehicle.
The administration volume of the test substance was 0.5 ml/mouse. The test substance was administered immediately prior to the test meal (Intralipid labeled with 14C-cholesterol) (cholesterol absorption test).
The feces were collected over a period of 24 h. Fecal elimination of 14C-cholesterol and 3H-taurocholic acid (TCA) was determined after 24 hours.
The livers were removed and homogenized, and aliquots were incinerated in an oximate (Model 307, Packard) to determine the amount of 14C-cholesterol that had been taken up/absorbed.
The amount of ^14C-cholesterol taken up by the liver was based on the administered dose. The ED50 values were interpolated from a dose-effect curve as the dose at which the uptake of 14C-cholesterol by the liver was halved (50%), based on a control group.

Row | Structure (SMILES) | ED50 (liver) [mg/mouse]
1 | O=C1C(CCC(O)c2ccc(F)cc2)C(c2ccc(OCc3cccc(CNCC(O)C(O)C(O)C(O)CO)c3)cc2)N1c1ccc(F)cc1 (stereo not drawn) [IX, 1-(4-Fluorophenyl)-3-[3-(4-fluorophenyl)-3-hydroxypropyl]-4-(4-{3-[(2,3,4,5,6-pentahydroxyhexylamine)methyl]benzyloxy}phenyl)azetidin-2-one] | <0.1
2 | O=C(Cc1ccc(C[N+]23CCN(CC2)CC3)cc1)NCc1ccc(C2C(CCC(O)c3ccc(F)cc3)C(=O)N2c2ccc(F)cc2)cc1.O=C([O-])C(F)(F)F (stereo not drawn) [Example XV, 1-{4-[(4-{1-(4-Fluorophenyl)-3-[3-(4-fluorophenyl)-3-hydroxypropyl]-4-oxoazetidin-2-yl}-benzylcarbamoyl)-methyl]-benzyl}-4-aza-1-azoniabicyclo[2.2.2]octane trifluoroacetate] | <1.0
3 | O=C1C(CCC(O)c2ccc(F)cc2)C(c2ccc(OCc3cccc(C[N+]45CCN(CC4)CC5)c3)cc2)N1c1ccc(F)cc1.[Br-] (stereo not drawn) [VIII, 1-[3-(4-{1-(4-Fluorophenyl)-3-[3-(4-fluorophenyl)-3-hydroxypropyl]-4-oxoazetidin-2-yl}phenoxymethyl)benzyl]-4-aza-1-azoniabicyclo[2.2.2]octane bromide] | <1.0
4 | O=C1C(CCC(O)c2ccc(F)cc2)C(c2ccc(OCc3ccccc3C[N+]34CCN(CC3)CC4)cc2)N1c1ccc(F)cc1.[Br-] (stereo not drawn) [VI, 1-[2-(4-{1-(4-Fluorophenyl)-3-[3-(4-fluorophenyl)-3-hydroxypropyl]-4-oxoazetidin-2-yl}phenoxymethyl)benzyl]-4-aza-1-azoniabicyclo[2.2.2]octane bromide] | 0.3
5 | O=C1C(CCC(O)c2ccc(F)cc2)C(c2ccc(OCc3ccc(CNCC(O)C(O)C(O)C(O)CO)cc3)cc2)N1c1ccc(F)cc1 (stereo not drawn) [Example V, 1-(4-Fluorophenyl)-3-[3-(4-fluorophenyl)-3-hydroxypropyl]-4-(4-{4-[(2,3,4,5,6-pentahydroxyhexylamine)methyl]benzyloxy}phenyl)azetidin-2-one] | <0.1
6 | O=C1C(CCC(O)c2ccc(F)cc2)C(c2ccc(OCc3ccccc3CNCC(O)C(O)C(O)C(O)CO)cc2)N1c1ccc(F)cc1 (stereo not drawn) [VII, 1-(4-Fluorophenyl)-3-[3-(4-fluorophenyl)-3-hydroxypropyl]-4-(4-{2-[(2,3,4,5,6-pentahydroxyhexylamine)methyl]benzyloxy}phenyl)azetidin-2-one] | <1.0
7 | O=C1C(CCC(O)c2ccc(F)cc2)C(c2ccc(OCc3ccc(C[N+]45CCN(CC4)CC5)cc3)cc2)N1c1ccc(F)cc1.[Br-] (stereo not drawn) [Example IV, 1-[4-(4-{1-(4-Fluorophenyl)-3-[3-(4-fluorophenyl)-3-hydroxypropyl]-4-oxoazetidin-2-yl}phenoxymethyl)benzyl]-4-aza-1-azoniabicyclo[2.2.2]octane bromide] | <0.1
8 | O=C(NCc1ccc(N2C(=O)C(CCC(O)c3ccccc3)C2c2ccccc2)cc1)c1ccc(Oc2ccc(C(=O)NCC(O)C(O)C(O)C(O)CO)cc2)cc1 (stereo not drawn) [Example II, 2,3,4,5,6-Pentahydroxyhexylamide of 4-(4-{4-[3-(3-hydroxy-3-phenylpropyl)-2-oxo-4-phenylazetidin-1-yl]benzylcarbamoyl}phenoxy)benzoic acid] | <1.0
9 | COc1ccc(C2C(CCC(O)c3ccc(F)cc3)C(=O)N2c2ccc(CNC(=O)c3ccc(Oc4ccc(C(=O)NCC(O)C(O)C(O)C(O)CO)cc4)cc3)cc2)cc1 (stereo not drawn) [Example I, 2,3,4,5,6-Pentahydroxyhexylamide of 4-(4-{4-[3-[3-(4-fluorophenyl)-3-hydroxypropyl]-2-(4-methoxyphenyl)-4-oxoazetidin-1-yl]benzylcarbamoyl}phenoxy)benzoic acid] | <0.1
